Measured values: patent US20160166604A1, “Thiol-Sensitive Positive Inotropes” (priority 2005, published 2016)
Several values for one entry are separate records, joined by “and”; a condition that tells them apart may be missing. Equal values may be shown once.

What was measured:
[1] = tested on: cAMP; experiment: cAMP FRET imaging in neonatal rat cardiomyocytes; format: cell-based; conditions: applied after AS
Protocol: Primary cultures of cardiac ventricular myocytes from 1-3 days old Sprague Dawley rats (Charles River Laboratories, Wilmington, Mass.) were prepared as described. Dostal, D. E. et al., Am. J. Physiol., 263, […]-[…] (1992). Cells were transfected with a FRET-based sensor for cAMP (Zaccolo, M. et al., Science, 295, 1711-1715 (2002)) and imaged 48 hrs after transfection. During the experiments, cells were continuously perfused with HEPES buffered Ringer's modified saline (1 mmol/LCaCl2) at room temperature. Cells were imaged on an inverted Olympus IX50 microscope upon excitation at 430 nm. Mongillo, M. et al., Circ. Res., 98, 226-234 (2006). Image analysis was performed by using ImageJ (Rasband, W. S., ImageJ, National Institutes of Health, Bethesda, Md., USA). At each time point, FRET values were measured as the 480 nm/535 nm emission ratio intensity (R) and were normalized to the 480 nm/535 nm value at time 0s (R0). Agents that increase peak Ca^2+ transients coupled to increased sarcomere shortening often do so via a rise in intracellular cAMP and subsequent activation of protein kinase A ([…]. et al., Curr. Med. Chem., 10, 967-981 (2003). To test whether this applied to AS, real-time imaging of cAMP on transfected neonatal rat cardiomyocytes was performed with a cAMP FRET-probe. Zaccolo, M. et al., Science, 295, 1711-1715 (2002). Upon exposure to 1 mM AS, the FRET signal was unchanged (0.3%±0.1%, n=23, p=NS), whereas subsequent application of norepinephrine (10 μM) or phosphodiesterase inhibitor IBMX (100 μM) both increased it by 12% (p<10^-6) (FIG. 2A). Pre-treatment of adult mouse myocytes with the PKA inhibitor […]

[2] = tested on: cardiomyocytes; experiment: Intracellular thiol quantitation (glutathione S-bimane fluorescence, two-photon microscopy); format: cell-based, mouse; conditions: GSH (ethyl ester) 4 mM for 3 hrs, n=40
Description: The cationic potentiometric fluorescent dye tetramethylrhodamine methyl ester (TMRM) was used to monitor changes in ΔΨm as previously described. Cortassa, S. et al., Biophys. J., 87, 2060-2073 (2004). The production of the fluorescent glutathione adduct GSB from the reaction of cell permeant monochlorobimane (MCB) with reduced glutathione (GSH), catalyzed by glutathione S-transferase, was used to measure intracellular glutathione levels, as described. Cortassa, S. et al., Biophys. J., 87, 2060-2073 (2004). Experimental recordings started after exposing the cardiomyocytes to an experimental Tyrode's solution. […] Images were recorded using a two photon laser scanning microscope (Bio-Rad MRC-1024MP) with excitation at 740 nm (Tsunami Ti:Sa laser, Spectra-Physics). The red emission of […] was collected at 605±25 nm and the blue fluorescence of GSB was collected at its maximal emission (480 nm). Images were analyzed offline using ItnageJ software (Wayne Rasband, National Institutes of Health, http://rsb.info.nih.gov/ij/). […]
HNO targets thiol groups on selective proteins. […] Pre-treatment with GSH enhanced intracellular thiol equivalents (+6±1.5% in fluorescence a.u. vs., controls, n=40, p<0.05), as determined by fluorescence assay of glutathione S-bimane production using two-photon microscopy. […]

NC[C@H](O)c1ccc(O)c(O)c1 [norepinephrine]
increase of cAMP FRET signal ([1]; norepinephrine 10 μM): 12%

CCOC(=O)CNC(=O)[C@H](CS)NC(=O)CC[C@H](N)C(=O)O [GSH, GSH ethyl ester]
increase of intracellular thiol equivalents (fluorescence a.u. vs. controls) [2]: 6% and 6±1.5%

CC(C)Cn1c(=O)n(C)c(=O)c2[nH]cnc21 [IBMX]
increase of cAMP FRET signal ([1]; IBMX 100 μM): 12%
